This assay has as its target T1, ΔF508-CFTR (Homo sapiens, UniProt P13569, DEL508-508).
T1 construct: expressed in transfected cells
Put plainly: Membrane potential optical assay for potentiators of ΔF508-CFTR (FLIPR III, voltage sensing dyes). Format: cell-based. The following applies: for Emax: NIH3T3, 100% efficacy is the maximum response obtained with 4-methyl-2-(5-phenyl-1H-pyrazol-3-yl)phenol, ΔF508 CFTR NIH 3T3 cells; for EC50: temperature-corrected ΔF508 CFTR NIH 3T3 cells, forskolin activation. The text has this: The assay utilizes fluorescent voltage sensing dyes to measure changes in membrane potential using a fluorescent plate reader (e.g., FLIPR III, Molecular Devices, Inc.) as a readout for increase in functional ΔF508-CFTR in NIH 3T3 cells.
To identify potentiators of ΔF508-CFTR, a double-addition HTS assay format was developed. This HTS assay utilizes fluorescent voltage sensing dyes to measure changes in membrane potential on the FLIPR III as a measurement for increase in gating (conductance) of ΔF508 CFTR in temperature-corrected ΔF508 CFTR NIH 3T3 cells.
Solutions • Bath Solution #1: (in mM) NaCl 160, KCl 4.5, CaCl2 2, MgCl2 1, HEPES 10, pH 7.4 with NaOH. • Chloride-Free Bath Solution: Chloride Salts in Bath Solution #1 are Substituted with Gluconate Salts.
NIH3T3 mouse fibroblasts stably expressing ΔF508-CFTR are used for optical measurements of membrane potential. The cells are maintained at 37° C. in 5% CO2 and 90% humidity in Dulbecco's modified Eagle's medium supplemented with 2 mM glutamine, 10% fetal bovine serum, 1×NEAA, β-ME, 1×pen/strep, and 25 mM HEPES in 175 cm^2 culture flasks. For all optical assays, the cells were seeded at ˜20,000/well in 384-well matrigel-coated plates and cultured for 2 hrs at 37° C. before culturing at 27° C. for 24 hrs. for the potentiator assay. For the correction assays, the cells are cultured at 27° C. or 37° C. with and without compounds for 16-24 hours. Electrophysiological Assays for assaying ΔF508-CFTR modulation properties of compounds.

Bounds are passed on as bounds.

T1 sequence (P13569 with tags, fused parts or gaps DEL508-508): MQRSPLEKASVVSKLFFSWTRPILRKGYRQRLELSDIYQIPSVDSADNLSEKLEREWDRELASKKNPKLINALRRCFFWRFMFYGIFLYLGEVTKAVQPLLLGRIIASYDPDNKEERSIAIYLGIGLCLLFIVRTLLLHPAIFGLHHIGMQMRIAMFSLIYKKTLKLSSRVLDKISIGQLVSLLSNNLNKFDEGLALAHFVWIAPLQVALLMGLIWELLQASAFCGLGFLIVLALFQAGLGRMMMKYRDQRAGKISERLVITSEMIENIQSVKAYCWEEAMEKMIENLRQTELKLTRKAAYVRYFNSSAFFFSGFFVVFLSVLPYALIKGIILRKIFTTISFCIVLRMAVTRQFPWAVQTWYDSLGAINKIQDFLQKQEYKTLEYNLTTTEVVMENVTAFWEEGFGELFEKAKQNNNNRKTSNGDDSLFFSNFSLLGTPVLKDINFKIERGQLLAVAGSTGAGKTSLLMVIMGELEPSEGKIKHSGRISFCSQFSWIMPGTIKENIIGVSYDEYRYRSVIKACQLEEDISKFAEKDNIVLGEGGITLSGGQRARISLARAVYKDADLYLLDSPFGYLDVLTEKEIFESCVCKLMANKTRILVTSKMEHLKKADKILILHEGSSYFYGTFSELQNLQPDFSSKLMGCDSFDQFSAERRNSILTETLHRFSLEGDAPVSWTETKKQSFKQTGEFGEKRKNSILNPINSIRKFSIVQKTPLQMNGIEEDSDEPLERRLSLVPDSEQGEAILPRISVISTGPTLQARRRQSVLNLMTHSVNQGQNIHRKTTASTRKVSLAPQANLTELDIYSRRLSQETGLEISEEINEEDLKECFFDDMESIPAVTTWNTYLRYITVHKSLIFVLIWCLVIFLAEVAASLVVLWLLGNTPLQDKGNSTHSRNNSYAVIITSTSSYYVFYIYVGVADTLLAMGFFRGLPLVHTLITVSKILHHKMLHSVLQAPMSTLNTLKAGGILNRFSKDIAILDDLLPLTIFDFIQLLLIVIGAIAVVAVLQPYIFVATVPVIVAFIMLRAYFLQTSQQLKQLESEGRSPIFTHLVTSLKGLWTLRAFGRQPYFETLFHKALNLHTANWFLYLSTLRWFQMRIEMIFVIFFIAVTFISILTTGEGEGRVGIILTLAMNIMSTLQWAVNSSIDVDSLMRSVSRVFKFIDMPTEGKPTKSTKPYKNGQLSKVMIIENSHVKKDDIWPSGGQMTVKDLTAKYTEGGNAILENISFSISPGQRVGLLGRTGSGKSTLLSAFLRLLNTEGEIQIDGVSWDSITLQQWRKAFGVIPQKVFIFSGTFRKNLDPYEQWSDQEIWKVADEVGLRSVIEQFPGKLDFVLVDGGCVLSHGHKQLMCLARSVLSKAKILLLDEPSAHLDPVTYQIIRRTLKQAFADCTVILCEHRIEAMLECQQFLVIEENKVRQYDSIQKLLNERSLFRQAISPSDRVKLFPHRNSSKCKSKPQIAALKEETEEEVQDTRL

As to `CN1CCC(c2cc(C3CCCC3)c(O)cc2NC(=O)C2CNc3cc(C#N)ccc3O2)CC1` (stereo not drawn) [Compound 111, 6-cyano-N-(4-cyclopentyl-5-hydroxy-2-(1-methylpiperidin-4-yl)phenyl)-3,4-dihydro-2H-benzo[b][1,4]oxazine-2-carboxamide], the Emax is less than 25% and the EC50 is 5 to 20 µM. Taken in the same sequence, the figures for `Cc1ccc(NC(=O)C2CNc3cc(OC(F)(F)F)ccc3O2)c(C#CCN(C)C)c1` (stereo not drawn) [Compound 26] were 25 to 100% and less than 5 µM. `CC1CCN(Cc2cc(C3CCCC3)c(O)cc2NC(=O)C2CNc3cc(OC(F)(F)F)ccc3O2)CC1` (stereo not drawn) [Compound 117]: the Emax was more than 100% and the 50% effective concentration (EC50) was less than 5 µM.

Consider `O=C(Nc1cc(O)c(C2CCCC2)cc1C(F)(F)F)[C@@H]1CNc2cc(OC(F)(F)F)ccc2O1` [Compound 54], for which the Emax fell in the range of 25 to 100% and the EC50 is less than 5 µM. Taken in the same sequence, the figures for `O=C(Nc1cc(O)c(C2CCCC2)cc1C#CCO)C1CNc2cc(OC(F)(F)F)ccc2O1` (stereo not drawn) [Compound 12] were 25 to 100% and less than 5 µM. Taken in the same sequence, the figures for `CC(C)(C)c1ccc(NC(=O)C2CNc3ccc(C(F)(F)F)cc3O2)cc1O` (stereo not drawn) [Compound 70] were 25 to 100% and less than 5 µM.

In the case of `O=C(Nc1cc(O)c(C2CCCC2)cc1C(F)(F)F)[C@H]1CNc2cc(F)ccc2O1` [Compound 93], the maximum response (Emax) lay within 25 to 100% and the EC50 was less than 5 µM. In the case of `CC(C)(C)c1ccc(NC(=O)C2CNc3ccccc3S2(=O)=O)cc1O` (stereo not drawn) [Compound 121, N-(4-tert-butyl-3-hydroxy-phenyl)-1,1-dioxo-3,4-dihydro-2H-benzo[b][1,4]thiazine-2-carboxamide], the maximal effect (Emax) fell in the range of 25 to 100% and the concentration for a half-maximal effect (EC50) was less than 5 µM.

In the case of `O=C(Nc1ccc2c(C(F)(F)F)c[nH]c2c1)C1CNc2ccccc2O1` (stereo not drawn) [Compound 30], the maximal response (Emax) was in the range of 25 to 100% and the concentration giving a half-maximal response (EC50) was 5 to 20 µM. The like results for `Cc1ccc(NC(=O)C2CNc3cc(OC(F)(F)F)ccc3O2)c(C#CCN2CCC(N)CC2)c1` (stereo not drawn) [Compound 101] were, in that order, less than 25% and 5 to 20 µM.

In the case of `Cc1cc(C#CCN(C)C)c(NC(=O)C2CNc3cc(OC(F)(F)F)ccc3O2)cc1O` (stereo not drawn) [Compound 7], the maximum response (Emax) was in the range of 25 to 100% and the EC50 is less than 5 µM.

As to `Cc1ccc(NC(=O)C2CNc3cc(OC(F)(F)F)ccc3O2)c(C#CCN2CCC(F)(F)CC2)c1` (stereo not drawn) [Compound 9], the maximum response (Emax) lay within 25 to 100% and the EC50 was less than 5 µM.

As for `CC(C)(C)c1ccc(NC(=O)C2CNc3ccccc3O2)cc1F` (stereo not drawn) [Compound 92], the Emax is 25 to 100% and the EC50 is less than 5 µM. Consider `O=C(Nc1cc(O)c(C2CCCC2)cc1Cl)C1CNc2ccc(F)cc2O1` (stereo not drawn) [Compound 103], for which the Emax lay in the range of 25 to 100% and the 50% effective concentration (EC50) is less than 5 µM. The like results for `NCC#Cc1cc(C2CCCC2)c(O)cc1NC(=O)C1CNc2cc(OC(F)(F)F)ccc2O1` (stereo not drawn) [Compound 40] were, in that order, 25 to 100% and less than 5 µM. Turning to `CCN1CCN(c2cc(C3CCCC3)c(O)cc2NC(=O)C2CNc3cc(C#N)ccc3O2)CC1` (stereo not drawn) [Compound 10], the Emax was less than 25% and the EC50 fell in the range of 5 to 20 µM.

In the case of `CC(C)(C)c1cc(C2CCCC2)c(O)cc1NC(=O)C1CNc2cc(C#N)ccc2O1` (stereo not drawn) [Compound 87], the Emax lay within 25 to 100% and the EC50 is less than 5 µM. Taken in the same sequence, the figures for `CC1(c2cc(F)c(NC(=O)C3CNc4ccccc4O3)cc2O)CCCCC1` (stereo not drawn) [Compound 99] were 25 to 100% and less than 5 µM. The like results for `CN(C)CC#Cc1cc(N2C3CCC2CC3)ccc1NC(=O)C1CNc2ccccc2O1` (stereo not drawn) [Compound 104] were, in that order, 25 to 100% and 5 to 20 µM.

For `Cc1ccc(NC(=O)C2CNc3cc(OC(F)(F)F)ccc3O2)c(-c2nc(CN(C)C)no2)c1` (stereo not drawn) [Compound 129], the Emax fell in the range of 25 to 100% and the concentration for a half-maximal effect (EC50) is less than 5 µM. Taken in the same sequence, the figures for `O=C(Nc1cc(O)c(C2CCCC2)cc1C(F)(F)F)C1CNc2ccc(F)cc2O1` (stereo not drawn) [Compound 31] were 25 to 100% and less than 5 µM.

Take `CN(C)CC#Cc1cc(C2CCCC2)c(O)cc1NC(=O)[C@H]1CNc2cc(OC(F)(F)F)ccc2O1` [Compound 58]: the Emax was more than 100% and the EC50 is less than 5 µM. On to `CN(C)CC#Cc1cc(F)ccc1NC(=O)C1CNc2cc(C#N)ccc2O1` (stereo not drawn) [Compound 114], for which the maximum response (Emax) was in the range of 25 to 100% and the EC50 is 5 to 20 µM. The like results for `CCc1cc(CN2CCC(C)CC2)c(NC(=O)C2CNc3cc(OC(F)(F)F)ccc3O2)cc1O` (stereo not drawn) [Compound 118] were, in that order, more than 100% and less than 5 µM.

Turning to `Cc1ccc(NC(=O)C2CNc3cc(Cl)ccc3O2)c(C#CCN(C)C)c1` (stereo not drawn) [Compound 67], the maximal effect (Emax) is 25 to 100% and the EC50 was less than 5 µM. On to `O=C(Nc1ccc(C(F)(F)F)c(O)c1)C1CNc2ccccc2O1` (stereo not drawn) [Compound 5], for which the maximal response (Emax) was less than 25% and the half-maximal effective concentration (EC50) lay in the range of 5 to 20 µM. Consider `Cc1ccc(NC(=O)C2CNc3cc(OC(F)(F)F)ccc3O2)c(C#CCN2CCNC(=O)C2)c1` (stereo not drawn) [Compound 63], for which the maximum response (Emax) was 25 to 100% and the concentration giving a half-maximal response (EC50) is less than 5 µM.

Consider `CN(C)CC#Cc1cc(C2CCCC2)c(O)cc1NC(=O)C1CNc2cc(C#N)ccc2O1` (stereo not drawn) [Compound 34], for which the Emax was 25 to 100% and the 50% effective concentration (EC50) was less than 5 µM. The like results for `Cc1ccc2c(c1)OC(C(=O)Nc1cc(O)c(C)cc1F)CN2` (stereo not drawn) [Compound 86] were, in that order, 25 to 100% and less than 5 µM. As to `CC1(C(=O)Nc2cc(O)c(C3CCCC3)cc2C(F)(F)F)CNc2cc(OC(F)(F)F)ccc2O1` (stereo not drawn) [Compound 128], the Emax was 25 to 100% and the EC50 is less than 5 µM. For the compound `Cc1ccc(NC(=O)C2CNc3cc(OC(F)(F)F)ccc3O2)c(C#CCN(C)C)n1` (stereo not drawn) [Compound 91], the maximum response (Emax) lay within 25 to 100% and the EC50 is less than 5 µM. Turning to `CC(C)(C)c1ccc(NC(=O)C2CNc3ccccc3[S+]2[O-])cc1O` (stereo not drawn) [Compound 125, N-(4-tert-butyl-3-hydroxy-phenyl)-1-oxo-3,4-dihydro-2H-benzo[b][1,4]thiazine-2-carboxamide], the maximal effect (Emax) was less than 25% and the half-maximal effective concentration (EC50) is less than 5 µM. Taken in the same sequence, the figures for `COc1cc(NC(=O)C2CNc3ccccc3O2)ccc1-n1c(C)ccc1C` (stereo not drawn) [Compound 28] were 25 to 100% and 5 to 20 µM. Taken in the same sequence, the figures for `Cc1ccc(NC(=O)C2CNc3cc(OC(F)(F)F)ccc3O2)c(CCN2CCOCC2)c1` (stereo not drawn) [Compound 116] were 25 to 100% and less than 5 µM. Taken in the same sequence, the figures for `Cc1cc(N2C3CCC2CC3)ncc1NC(=O)C1CNc2ccc(F)cc2O1` (stereo not drawn) [Compound 56] were 25 to 100% and 5 to 20 µM. With `Cc1cc(C2CCCC2)c(O)cc1NC(=O)C1CNc2ccc(F)cc2O1` (stereo not drawn) [Compound 21], the Emax lay within 25 to 100% and the EC50 is less than 5 µM. `CN(C)CC#Cc1cc(C2CCCC2)c(O)cc1NC(=O)C1CNc2cc(OC(F)(F)F)ccc2O1` (stereo not drawn) [Compound 106]: the Emax is more than 100% and the EC50 was less than 5 µM. Taken in the same sequence, the figures for `CC1(c2cc(F)c(NC(=O)[C@H]3CNc4ccccc4O3)cc2O)CCCCC1` [Compound 80] were 25 to 100% and less than 5 µM. Turning to `CN(C)CC#Cc1cc(N2C3CCC2CC3)ccc1NC(=O)C1CNc2cc(C#N)ccc2O1` (stereo not drawn) [Compound 43, N-(4-(7-azabicyclo[2.2.1]heptan-7-yl)-2-(3-(dimethylamino)prop-1-ynyl)phenyl)-6-cyano-3,4-dihydro-2H-benzo[b][1,4]oxazine-2-carboxamide], the EC50 was less than 5 µM.

In the case of `Cc1ccc(NC(=O)C2CNc3cc(OC(F)(F)F)ccc3O2)c(CCN2CC[C@@H](F)C2)c1` (stereo partly drawn) [Compound 119], the Emax was 25 to 100% and the EC50 was 5 to 20 µM. Take `O=C(Nc1ccc(C2CC2)c(O)c1)C1CNc2ccccc2O1` (stereo not drawn) [Compound 27]: the Emax was 25 to 100% and the EC50 was less than 5 µM.

As to `CCOC(=O)CCc1cc(C2CCCC2)c(O)cc1NC(=O)C1CNc2cc(OC(F)(F)F)ccc2O1` (stereo not drawn) [Compound 4], the maximal effect (Emax) is more than 100% and the half-maximal effective concentration (EC50) is less than 5 µM. The like results for `CC(C)(C)c1ccc(NC(=O)C2CNc3cccc(C(F)(F)F)c3O2)cc1O` (stereo not drawn) [Compound 85] were, in that order, 25 to 100% and less than 5 µM. The like results for `CC(C)Oc1ccc(NC(=O)C2CNc3ccc(F)cc3O2)cc1O` (stereo not drawn) [Compound 42] were, in that order, less than 25% and 5 to 20 µM. The like results for `Cc1cc(F)c(NC(=O)C2CNc3ccccc3O2)cc1O` (stereo not drawn) [Compound 55] were, in that order, 25 to 100% and less than 5 µM. Take `CCc1ccc(NC(=O)C2CNc3cc(OC(F)(F)F)ccc3O2)c(C#CCN(C)C)c1` (stereo not drawn) [Compound 44]: the maximal response (Emax) is more than 100% and the concentration for a half-maximal effect (EC50) was less than 5 µM. Taken in the same sequence, the figures for `CN(C)CC#Cc1cc(C2CCCC2)c(O)cc1NC(=O)[C@@H]1CNc2ccccc2O1` [Compound 37] were 25 to 100% and less than 5 µM.

For the origin of these results see patent US8999976B2, “Modulators of cystic fibrosis transmembrane conductance regulator” (Vertex Pharmaceuticals Incorporated, priority 2008, dated 2015).
